GI50 and TGI data for 13 molecules are collected here from PubChem BioAssay (NCI).

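96-well plates; 48 h exposure; 5 concentrations. Endpoints by linear interpolation between flanking doses. Not reached: highest tested concentration assigned. GI50: concentration for 50% inhibition of growth. TGI: concentration producing complete growth inhibition.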 A value given as a limit tells only on which side of the number the result lay.

Common to all, as to assay: NCI anticancer screen, dose series, 48 h
For assay [1], the system named is SF-295 CNS.
Assay [2] relates to HCT-116 colon.
Assay [3] concerns 786-0 renal.
The subject of assay [4] is UO-31 renal.
The test system of assay [5] is DU-145 prostate.
Assay [6] deals with NCI-H226 lung.
The test system of assay [7] is SK-OV-3 ovarian.
Assay [8] relates to PC-3 prostate.
Assay [9] relates to IGROV1 ovarian.
Assay [10] concerns MALME-3M melanoma.

In the case of `CO/C(=N\N=C\c1cccc(C(F)(F)F)c1)c1ccncc1`, the GI50 in assay [1] is 7.59 µM; in assay [3], 8.71 µM; in assay [4], 6.09 µM; in [5], 33.6 µM; in [10], 9.42 µM. Further, the TGI in assay [2] was above 100 µM; in [3], 24.8 µM; in assay [4] it was 40.8 µM; in [5], above 100 µM; in assay [6] it was 27.4 µM; in assay [7] it was 99.1 µM. In addition, the TGI in assay [8] was above 100 µM; in [9] it was 79.3 µM; in assay [10], above 100 µM.
In the case of `CN1CCC(n2[nH]c(-c3ccccc3)c(Cc3ccccc3)c2=O)CC1`, the TGI in [1], in assay [2], in assay [3], in assay [4], in assay [5] and in assay [6] was above 100 µM each time. Moreover, the TGI in [7], in [8], in assay [9] and in assay [10] was above 100 µM each time.
On to `COc1ccc2c(c1)[C@@]1(C)CCC3c4ccc(O)cc4CCC3C1C2` (stereo not given in full), for which the GI50 in [1] was 17.3 µM; in [2], 14.4 µM; in [3] it was 15.3 µM; in assay [4], 12.8 µM; in [5], 17.6 µM; in assay [6], 18.7 µM. In addition, the GI50 in assay [7] was 15.7 µM; in assay [8] it was 20.1 µM; in [9] it was 20.6 µM; in assay [10], 18.7 µM. For the same molecule, the TGI was 33.8 µM in assay [1]; 27.5 µM in [2]; 29.2 µM in [3]; 30.9 µM in assay [4]; 39.7 µM in [5]; 38.2 µM in [6]. Moreover, the TGI in assay [7] worked out at 29.6 µM; in [8], 42 µM; in [9], 48.2 µM; in assay [10], 34.8 µM.
As for `NC1=C(Cl)C(=O)c2ccccc2C1=O`, the TGI in assay [1] is 18.1 µM; in assay [2], 11.6 µM; in assay [3], 20.2 µM; in assay [4], 29.9 µM; in assay [5], 3.84 µM; in assay [6] it was 18.3 µM. In addition, the TGI was 33.1 µM in assay [7], 6 µM in [8], 26 µM in assay [9] and 3.13 µM in assay [10].
Regarding `CCN1CCC(CC(=O)Nc2n[nH]c3nc(-c4cccs4)c(Br)cc23)CC1`, the GI50 in assay [1] is 10.7 µM; in assay [2] it was 7.81 µM; in assay [3], 10.7 µM; in [4], 9.05 µM; in assay [5] it was 8.5 µM; in assay [6] it was 12.1 µM. Besides, the GI50 was 9.24 µM in assay [7], 10.4 µM in assay [8], 12.8 µM in assay [9] and 6.42 µM in [10]. For the same molecule, the TGI in [1] is above 25 µM; in [2], above 23.4 µM; in assay [3] it was above 25 µM; in [4] it was above 25 µM; in assay [5], above 25 µM; in assay [6], above 25 µM. For the same molecule, the TGI in assay [7] was above 25 µM; in [8], above 25 µM; in assay [9], above 25 µM; in assay [10], 13.4 µM.
Take `Cc1ccc2nc(N/N=C/c3cccc(C)n3)cc(C)c2c1`: the TGI in [1] came out at 31.6 µM; in [2] it was 32.1 µM; in [3], 33.7 µM; in assay [4], 41.3 µM; in assay [5] it was 36.3 µM; in assay [6], 48.6 µM. Moreover, the TGI in assay [7] came out at 30.2 µM; in [8], 37.2 µM; in [9], 32 µM; in assay [10] it was 30.3 µM.
As to `CO/N=C(/COc1c(-c2ccccc2)oc2ccccc2c1=O)c1ccc(F)cc1`, the GI50 in assay [1] was 41.1 µM; in [2] it was 39.3 µM; in [3], 25.1 µM; in [4], above 100 µM; in assay [5], above 100 µM; in assay [6] it was above 100 µM. Also, the GI50 was 62.4 µM in assay [7], 31.5 µM in [8], 22.1 µM in assay [9] and 52.9 µM in assay [10]. The TGI in assay [1] was above 100 µM; in assay [2], above 100 µM; in assay [3], 64 µM; in [4], above 100 µM; in [5], above 100 µM; in assay [6], above 100 µM. Besides, the TGI was above 100 µM in [7], above 100 µM in assay [8], 90.7 µM in [9] and above 100 µM in assay [10].
With `COc1ccc(-c2ccccc2)cc1-c1c(Nc2cc(Cl)cc(Cl)c2O)c(=O)c1=O`, the GI50 in assay [1] is 1.26 µM; in assay [2], 1.58 µM; in assay [3] it was 1.84 µM; in assay [4] it was 1.25 µM; in assay [5], 1.7 µM; in assay [6], 1.57 µM. Moreover, the GI50 in [7] was 1.28 µM; in [8], 1.37 µM; in assay [9], 1.76 µM; in [10] it was 1.19 µM. Besides, the TGI in assay [1] is 3.69 µM; in [2], above 50 µM; in assay [3], above 50 µM; in assay [4], above 50 µM; in assay [5], above 50 µM; in assay [6] it was above 50 µM. The TGI in [7] is 4.25 µM; in [8], above 50 µM; in assay [9] it was above 50 µM; in assay [10], 3.5 µM.
For `O=[N+]([O-])c1cccc(-c2cc(-c3cc(Br)ccc3O)[nH]n2)c1`, the GI50 in assay [2] is 1.46 µM; in [3], 1.7 µM; in assay [4] it was 2.34 µM; in [5], 3.44 µM; in assay [6], 3.66 µM; in assay [7] it was 2.37 µM. For the same molecule, the GI50 is 3.48 µM in assay [8], 2.27 µM in assay [9] and 2.21 µM in assay [10]. Moreover, the TGI in assay [2] worked out at 2.86 µM; in [3], 4.08 µM; in assay [4] it was 9.38 µM; in assay [5], 12.3 µM; in assay [6], 27.2 µM; in assay [7] it was 7.15 µM. For the same molecule, the TGI in assay [8] came out at 7.7 µM; in [9] it was 7.06 µM; in assay [10], 5.52 µM.
Regarding `CCC(=O)c1ccc2c(c1)N(CCCN1CCN(CCO)CC1)c1ccccc1S2`, the GI50 in assay [1] is 12.2 µM; in [2], 10.5 µM; in [3] it was 13.2 µM; in assay [4], 7.82 µM; in assay [5], 15.4 µM; in [6] it was 17.6 µM. For the same molecule, the GI50 in assay [7] is 16.8 µM; in assay [8] it was 11.5 µM; in assay [9], 12.4 µM; in [10] it was 8.85 µM. The TGI in [1] came to 25.9 µM; in [2] it was 22.9 µM; in assay [3], 26.9 µM; in assay [4], 21.6 µM; in [5], 28.9 µM; in [6], 33.8 µM. In addition, the TGI came to 31.6 µM in assay [7], 25.2 µM in assay [8], 29.1 µM in assay [9] and 26.1 µM in assay [10].
Consider `Cc1ccc2[nH]c(C(=O)NN3C(=O)C(C)SC34CCCCC4C)c(-c3ccccc3)c2c1` (stereo not given), for which the GI50 in [1] was 17.8 µM; in assay [2], 17.4 µM; in assay [3] it was 22.2 µM; in assay [4], 16.8 µM; in assay [5], 21.7 µM; in assay [6] it was 17.4 µM. Besides, the GI50 was 37.9 µM in [7], 15.3 µM in assay [8] and 20.4 µM in assay [10]. In addition, the TGI was found to be 35.5 µM in [1]; 35.6 µM in assay [2]; 50.9 µM in assay [3]; 32.6 µM in assay [4]; 50.7 µM in assay [5]; 34.2 µM in [6]. The TGI in [7] is above 100 µM; in assay [8] it was 37.6 µM; in assay [10], 38.1 µM.
As for `CC(=O)OC12CC(C)C3(O)C4C=C(C)C(=O)[C@@]4(O)CC(CO)=C[C@H]3C1C2(C)C` (stereo not given in full), the GI50 in assay [2] was above 1000 µM; in assay [3] it was above 1000 µM; in assay [4], above 1000 µM; in assay [5] it was above 1000 µM; in assay [6] it was above 1000 µM; in assay [8], 0.228 µM. Further, the GI50 in [9] and in assay [10] was above 1000 µM in each case. Also, the TGI in assay [2], in assay [3], in assay [4], in assay [5], in assay [6] and in [7] was above 1000 µM in each case. Moreover, the TGI in assay [8], in assay [9] and in [10] was above 1000 µM in each case.
Take `NC1=NC(c2ccc(F)cc2)C2=C(N1)c1ccc3ccccc3c1OCC2` (stereo not given): the GI50 in assay [1] was 3.47 µM; in assay [3], 79.7 µM; in [4], above 100 µM; in assay [5], above 100 µM; in assay [6], 9.57 µM; in [7], 26.8 µM. Moreover, the GI50 was above 100 µM in assay [8], above 100 µM in [9] and 18.5 µM in assay [10]. Further, the TGI in assay [1] is 48.4 µM; in assay [3], above 100 µM; in assay [4], above 100 µM; in [5] it was above 100 µM; in [6] it was 57.4 µM; in assay [7] it was above 100 µM. Besides, the TGI in assay [8], in [9] and in assay [10] was above 100 µM throughout.
